# Measured values published in patent US20090181975A1, “NEBIVOLOL IN THE TREATMENT OF SEXUAL DYSFUNCTION” (FOREST LABORATORIES HOLDINGS LIMITED, priority 2008, published 2009).
# Key:
# anesthetized rats [1] = assay: Mean arterial pressure (MAP) and heart rate (HR) in anesthetized rats; type: in vivo, rat (Sprague-Dawley)
# Experimental: To determine blood pressure and heart rate, Sprague-Dawley rats (250-400 g) were anesthetized with ketolar and diazepam. The right carotid artery was catheterized for constant blood pressure and heart rate measurement by means of a pressure transducer connected to a PowerLab data acquisition system (ADInstruments). The left external jugular vein was catheterized for saline or drug infusion. 3 mg/kg nebivolol (n=6) or vehicle (50% glycofurol; n=4) was administered intravenously in anesthetized rats and MAP and HR were measured. […] The effect of nebivolol in combination with the type 5 phosphodiesterase (PDE-5) inhibitor sildenafil on hypotension and heart rate was studied in rats using the methods described above.
# cGMP in rat plasma = assay: Plasma cGMP content by ELISA; type: in vivo, rat (Sprague-Dawley)
# Experimental: To determine the plasma cGMP content, Sprague-Dawley rats were anesthetized with urethane (1.25 g/kg). The right carotid artery was catheterized for constant blood pressure and heart rate measurement by means of a pressure transducer connected to a PowerLab data acquisition system (ADInstruments). The left external jugular vein was catheterized for saline or drug infusion. After administering the respective treatments, rat plasma samples were collected, immediately frozen and stored at −80° C. until extraction for cyclic nucleotide assay. cGMP was determined by ELISA using a kit from Cayman Chemical Co. Plasmatic cGMP levels were determined 10 minutes after nebivolol administration.
# [2] = tested on: thiobarbituric acid reactive substances (TBARS) in rat serum; assay: Serum TBARS in STZ-diabetic rats; type: in vivo, rat (Sprague-Dawley); conditions: for effect on TBARS levels in diabetic rats: groups with and without sildenafil pooled
# Experimental: Male Sprague-Dawley rats were used as a model for this study. Diabetes was induced by a single injection of streptozotocin (STZ, 60 mg/kg; i.p.) dissolved in 0.1 M citric acid/trisodic citrate buffer (pH 4-4.5) and was assessed by glycemia determination 72 h after induction. Animals were kept, with free access to food and water, for 8 weeks before experimental assays. Eight weeks after induction of diabetes, rats show altered in vivo vascular function (Angulo et al., Naunyn-Schmiedeberg's Arch Pharmacol, 358(5), 529-37, 1998) and reduced erectile responses (Angulo et al., J. Sex Med., 2, 341-346, 2005). Blood glucose concentration was determined each week and just before the experiment. Insulin levels were not determined. Blood was collected from the right ventricle, clotted in gel and centrifuged at 1500×g to obtain serum. Thiobarbituric acid reactive substances (TBARS) were determined by reacting thiobarbituric acid with serum samples at 70° C. for 30 min and reading absorbance at 532 nm. Serum concentrations of TBARS were determined by using malondialdehyde (MDA) as a standard. […] Results were expressed as ng/ml of MDA equivalents. […] After 10 days treatment, diabetic rats were anesthetized and erectile responses to cavernosal nerve electrical stimulation (CNES) were determined. After an equilibration period, the PDE-5 inhibitor sildenafil (0.3 mg/kg) or the vehicle (25% glycofurol) was intravenously administered. Forty five minutes later, erectile responses to CNES were again evaluated, and 5 min after CNES application, blood was collected for obtaining plasma and serum, and the penis was excised. Serum samples were immediately frozen until determinations of NOx and TBARS. Plasma and penile tissues were immediately frozen until determinations of cGMP.
# anesthetized rats [3] = assay: Erectile responses: intracavernosal pressure (ICP) increases to cavernosal nerve electrical stimulation; type: in vivo, rat (Sprague-Dawley); conditions: 3 mg/kg i.v.
# Experimental: The effects of nebivolol administration on rat erectile function were studied. Erectile responses in rats were evaluated by measuring intracavernosal pressure (ICP) increases to cavernosal nerve electrical stimulation. To measure ICP, rats (Sprague-Dawley) were anesthetized with ketolar and diazepam. The surgical procedure included dissection and isolation of the right cavernous nerve through an abdominal midline incision and exposure of penile crura through a transverse perineal incision. ICP measurements were permitted by insertion of a 23-gauge needle into the right crus. The right carotid artery and left external jugular vein were catheterized for constant blood pressure measurement and saline infusion, respectively. Electrostimulation was performed with a delicate platinum bipolar hook electrode connected to a stimulator and current amplifier. Parameters of electrical stimulation included pulses with a duration of 0.3 ms and 1.5 mA of current intensity for 1 min. Frequency-response curves were performed by applying stimulation at 1, 3 and 10 Hz with a lapse of 3 min between each increase of frequency.
# [4] = tested on: human penile resistance arteries (HPRA); assay: Relaxation of human penile resistance arteries contracted with U46619 (myograph); type: cell-based; parameters: effect on endothelium-dependent relaxation of HPRA caused by acetylcholine / effect on sildenafil-mediated relaxation of HPRA: unit of the concentration uncertain; conditions: for effect on endothelium-dependent relaxation of HPRA caused by acetylcholine: metoprolol (1 (unit uncertain)), nebivolol (0.3 (unit uncertain))
# Experimental: Specimens of human corpus cavernosum were obtained from organ donors and from impotent men at the time of penile prosthesis implantation. Tissues were placed in ice-cold M-400 solution (pH 7.4; 400 mOsm/kg, composition in w/v: 4.19% manitol, 0.2% KH2PO4, 0.97% K2HPO4.3H2O, 0.11% KCl and 0.08% NaHCO3) at the time of removal and transported to the laboratory for utilization within 16 h.
# To determine the resistance of penile small arteries, helicine arteries (lumen diameter 150-400 μm) which are the terminal branches of deep penile arteries, were dissected by carefully removing the adhering trabecular tissue, and arterial ring segments (2 mm long) were subsequently mounted on two 40 μm wires on microvascular double Halpern-Mulvany myographs (J.P. Trading, Aarhus, Denmark) for isometric tension recordings. The chambers were filled with PSS continuously bubbled with 95% O2/5% CO2 mixture to maintain a pH of 7.4. […]
# diabetic rats = assay: Glycemia, arterial pressure and heart rate in STZ-diabetic rats after 10 days s.c. treatment; type: in vivo, rat (Sprague-Dawley); conditions: 3 or 10 mg/kg/day s.c. for 10 days
# Experimental: Male Sprague-Dawley rats were used as a model for this study. Diabetes was induced by a single injection of streptozotocin (STZ, 60 mg/kg; i.p.) dissolved in 0.1 M citric acid/trisodic citrate buffer (pH 4-4.5) and was assessed by glycemia determination 72 h after induction. Animals were kept, with free access to food and water, for 8 weeks before experimental assays. Eight weeks after induction of diabetes, rats show reduced erectile responses (Angulo et al., Naunyn-Schmiedeberg's Arch Pharmacol, 358(5), 529-37, 1998; Angulo et al., J. Sex Med., 2, 341-346, 2005). Blood glucose concentration was determined each week and just before the experiment. Insulin levels were not determined. […] After this period of treatment, the diabetic rats were anesthetized and ICP responses to electrical stimulation were evaluated. After an equilibration period, the PDE5 inhibitor sildenafil (0.3 mg/kg) or the vehicle (25% glycofurol) was intravenously administered. Forty five minutes later, ICP responses were again determined
# [5] = tested on: spontaneous hypertensive rats; conditions: acute; cited from earlier work
# anaesthetized dogs = conditions: cited from earlier work
# [6] = nebivolol 1 mg/kg i.v., pre-treatment sildenafil 0.3 mg/kg i.v.
# [7] = nebivolol 3 mg/kg i.v., L-NAME 3 mg/kg, ODQ 1 mg/kg, propranolol 1 mg/kg, sildenafil 0.3 mg/kg i.v.
# [8] = 3 mg/kg i.v., vs vehicle (50% glycofurol)
smiles,measurement,setting,value
CCCc1nn(C)c2c(=O)[nH]c(-c3cc(S(=O)(=O)N4CCN(C)CC4)ccc3OCC)nc12 [sildenafil],effect on blood pressure drop caused by nebivolol,anesthetized rats [1]; [6],significantly enhanced
same,effect on reduction of heart rate caused by nebivolol,anesthetized rats [1]; [6],not modified
same,effect on heart rate reduction caused by nebivolol,anesthetized rats [1]; [7],did not significantly alter
same,effect on hypotension caused by nebivolol,anesthetized rats [1]; [7],did not significantly alter
same,effect on plasma cGMP levels,"cGMP in rat plasma; i.v.: atenolol 3 mg/kg, sildenafil 0.3 mg/kg, sodium nitroprusside 0.1 mg/kg",augmented cGMP up to similar levels than nebivolol
same,influence on serum TBARS levels,[2]; sildenafil 0.3 mg/kg i.v.,did not significantly influence
"OC(CNCC(O)C1CCc2cc(F)ccc2O1)C1CCc2cc(F)ccc2O1 (racemic) [nebivolol, α,α′-iminobis(methylene)bis[6-fluoro-2-chromanmethanol]]",effect on blood pressure,anesthetized rats [1]; 1 mg/kg i.v.,hypotensive and bradycardic effects of moderate intensity
same,effect on heart rate,anesthetized rats [1]; 1 mg/kg i.v.,hypotensive and bradycardic effects of moderate intensity
same,effect on heart rate (HR),anesthetized rats [1]; [8],significant reduction of heart rate
same,effect on mean arterial pressure (MAP),anesthetized rats [1]; [8],significant hypotensive effect
same,increase in plasma cGMP levels,"cGMP in rat plasma; 3 mg/kg i.v., 10 minutes after administration, percentage of cGMP concentration before administration (FIG. 15)",177±38%
same,interaction with sildenafil on plasma cGMP levels,cGMP in rat plasma; combination of sildenafil and nebivolol,synergistically increases plasma cGMP levels
same,plasma cGMP levels after combined administration with sildenafil,cGMP in rat plasma; nebivolol 3 mg/kg + sildenafil 0.3 mg/kg i.v.,marked increase of cGMP levels
same,"plasma cGMP levels after combining sildenafil with nebivolol, dose-dependent",cGMP in rat plasma; nebivolol 1 and 3 mg/kg + sildenafil 0.3 mg/kg i.v.,significant further increase
same,effect on erectile responses to CNES,anesthetized rats [3],significantly potentiated
same,AUC of ICP at 3 Hz,"anesthetized rats [3]; control 1612±294, p<0.05",2544±440 mmHg×s
same,EC50,"[4]; Homo sapiens, nebivolol 1 nM to 10 μM, read-out: EC50, endothelium-dependent vasodilation of HPRA",0.0244 µM
same,Emax,"[4]; Homo sapiens, nebivolol 1 nM to 10 μM, read-out: Emax, endothelium-dependent vasodilation of HPRA",59.1 ± 10.3%
same,relaxation of HPRA compared with metoprolol or atenolol,[4]; U46619 30-100 nM,significantly more potent than those caused by metoprolol or atenolol
same,relaxation of HPRA by cumulative addition,"[4]; U46619 30-100 nM, 1 nM to 0.1 mM",marked relaxations
same,effect on endothelium-dependent relaxation of HPRA caused by acetylcholine,[4]; atenolol (1 (unit uncertain)),not affected
same,effect on sildenafil-mediated relaxation of HPRA,"[4]; nebivolol (1 (unit uncertain)), atenolol (1 (unit uncertain))",able to enhance
same,effect on arterial pressure in diabetic rats,diabetic rats,Neither diabetes nor either drug treatment (nebivolol or atenolol) significantly affected
same,effect on heart rate in diabetic rats,diabetic rats,further reduced
same,effect on TBARS levels in diabetic rats,[2]; 10 mg/kg/day for 10 days,significant reduction
same,effect on TBARS levels in diabetic rats,[2]; administered for 10 days,trend to reduce
same,effect on blood pressure,[5],acutely lowers blood pressure
same,effect on stroke volume,anaesthetized dogs,augments stroke volume
same,effect on total peripheral vascular resistance,anaesthetized dogs,decreases total peripheral vascular resistance
CC(C)NCC(O)COc1ccc(CC(N)=O)cc1 (centres unmarked) [atenolol],effect on endothelium-dependent relaxation of HPRA caused by acetylcholine,[4]; atenolol (1 (unit uncertain)),not affected
same,effect on arterial pressure in diabetic rats,diabetic rats,Neither diabetes nor either drug treatment (nebivolol or atenolol) significantly affected
same,effect on heart rate in diabetic rats,diabetic rats,further reduced
